The record followed here is patent publication US8633251B2, “Derivatives of aminoalkanols, method of obtaining of aminoalkanols and their use” (Uniwersytet Jagiellonski, priority 2008, dated 2014).

The subject of one series is neurotoxicity (rotarod). The experiment in a line: Neurotoxicity test (TOX), rotarod, mice. The format is in vivo. As to the method: (§1) In order to define anticonvulsant activity, screening tests were performed, using animal models of seizures. […] Each substance (after dissolving in methylcellulose) was normally tested in doses 30, 100, and 300 mg/kg body weight (b.w.) (mice) or in 30 and 50 mg/kg b.w. (rats) in two possible routes of administration: intraperitoneal (i.p.) or oral (p.o.). Appropriate tests were performed 0.5 and 4 h after administration of the compound. […] (mice) the tests were also performed in doses 10 and 3 mg/kg b.w.
It is performed with use of rotarod test. The animal is placed on a plastic rod (1 inch in diameter), rotating 6 rpm. The rod is placed on a level discouraging the animal to jump off. […] Neurotoxicity is stated if the animal cannot stay on the rod for 1 min. in any of 3 trials. Normally the test is performed in dose 30 mg/kg b.w. in 4 mice (0.5 h) and in 2 mice (4 h), in the dose 100 mg/kg b.w. in 8 mice (0.5 h) and in 4 mice (4 h) and in the dose 300 mg/kg b.w. in 4 mice (0.5 h) and 2 mice (4 h).

Series [1] has as its system maximal electroshock seizures. The experiment in a line: Maximum Electroshock Seizure (MES) test, mice. The following applies: mice, time 0.5 h. In kind it is in vivo. As to the method: as §1
Maximum Electroshock Seizure (MES) test is an electric test, verifying activity towards generalized tonic-clonic seizures (grand mal epilepsy). […] Its procedure consists in administration to an animal a mentioned dose, and after 0.5 or 4 h attaching corneal electrodes (after anesthetic eye-drops: 0.5% tetracaine hydrochloride in 0.9% NaCl) and turning on electric current (60 Hz, 0.2 s, 50 mA (mice) or 150 mA (rats)). […] Normally, in the dose 30 mg/kg b.w. the test is done in 1 mouse after 0.5 or 4 h, in the dose 100 mg/kg b.w.—in 3 mice, and in the dose 300 mg/kg b.w.—in 1 mouse.

The mark [2] stands for this setting: mice, dose 30 mg/kg b.w., time 0.5 h.
[3] abbreviates: mice, dose 100 mg/kg b.w., time 0.5 h.
The mark [4] stands for this setting: mice, dose 300 mg/kg b.w., time 0.5 h.
Setting [5] is: mice, dose 300 mg/kg b.w., 0.5 h.
Where [6] appears, read: mice, dose 100 mg/kg b.w., 0.5 h.

For the molecule `CCC(CO)NCCOc1cc(C)ccc1C` (stereo not drawn) [Compound 8, R,S-2N-[(2,5-dimethylphenoxy)ethyl]amino-1-butanol], the “TOX, No. of animals exhibiting motor impairment/no. of used animals” value is reported as 8/8 in the series on neurotoxicity (rotarod) (mouse, in vivo, 100 mg/kg) and 4/4 with neurotoxicity (rotarod) (mouse, in vivo, 300 mg/kg). In series [1] (dose 100 mg/kg b.w.), the “MES, No. of protected animals/No. of used animals” value is listed as 3/3.
For `Cc1cc(C)c(OCCN[C@H](C)CO)c(C)c1` [Compound 43, R-(−)-2N-[(2.4.6-trimethylphenoxy)ethyl]amino-1-propanol], the “TOX, No. of animals exhibiting motor impairment/no. of used animals” value with neurotoxicity (rotarod) (setting [2]) is reported as 3/4; in the series with neurotoxicity (rotarod) (setting [3]) it was 8/8; in the series with neurotoxicity (rotarod) (setting [4]) it was 4/4. Besides, the “MES, No. of protected animals/No. of used animals” value in series [1] (dose 100 mg/kg b.w.) is given as 3/3.
Turning to `Cc1cccc(Cl)c1OCCNC(C)(CO)CO` [Compound 29, 2N-[(2-chlor-6-methylphenoxy)ethyl]amino-2-methyl-1,3-propandiol], the “TOX, No. of animals exhibiting motor impairment/no. of used animals” value with neurotoxicity (rotarod) (mouse, in vivo, 100 mg/kg) is 4/8; in the series on neurotoxicity (rotarod) (mouse, in vivo, 300 mg/kg) it was 4/4. For the same molecule, in series [1] (dose 100 mg/kg b.w.), the “MES, No. of protected animals/No. of used animals” value is listed as 2/3.
Consider `CCC(NC(=O)COc1c(C)cccc1Cl)C(N)=O` (racemic) [Compound 78, D,L-2N-[(2-chlor-6-methylphenoxy)acetyl]aminobutyramide], for which the “TOX, No. of animals exhibiting motor impairment/no. of used animals” value with neurotoxicity (rotarod) (setting [5]) is 1/4.
As to `Cc1cccc(Cl)c1OCCN[C@@H]1CCCC[C@H]1O` (relative stereo) [Compound 30, D,L-trans-2N-[(2-chlor-6-methylphenoxy)ethyl]amino-1-cyclohexanol], the “TOX, No. of animals exhibiting motor impairment/no. of used animals” value in the series on neurotoxicity (rotarod) (setting [3]) is recorded as 8/8; in the series on neurotoxicity (rotarod) (setting [4]), 4/4. Besides, the “MES, No. of protected animals/No. of used animals” value in series [1] (dose 30 mg/kg b.w.) and in series [1] (dose 100 mg/kg b.w.) was 1/1 in each case.
`Cc1cccc(C)c1OCCNCC(O)c1ccccc1` (stereo not drawn) [Compound 19, R,S-2N-[(2,6-dimethylphenoxy)ethyl]amino-1-phenylethanol]: the “TOX, No. of animals exhibiting motor impairment/no. of used animals” value is 1/4 in the series on neurotoxicity (rotarod) (setting [2]), 8/8 in the series on neurotoxicity (rotarod) (setting [3]) and 4/4 in the series on neurotoxicity (rotarod) (setting [4]). For the same molecule, the “MES, No. of protected animals/No. of used animals” value in series [1] (dose 30 mg/kg b.w.) is reported as 1/1; in series [1] (dose 100 mg/kg b.w.), 3/3.
Regarding `Cc1cccc(Cl)c1OCC(=O)NCCCC(=O)O` [Compound 79, 4N-[(2-chlor-6-methylphenoxy)acetyl]aminobutyric acid], in the series on neurotoxicity (rotarod) (setting [5]), the “TOX, No. of animals exhibiting motor impairment/no. of used animals” value is 1/4.
Turning to `Cc1ccc(C)c(OCCNCC(O)c2ccccc2)c1` (stereo not drawn) [Compound 9, R,S-2N-[(2,5-dimethylphenoxy)ethyl]amino-1-phenylethanol], the “TOX, No. of animals exhibiting motor impairment/no. of used animals” value in the series on neurotoxicity (rotarod) (setting [3]) is on record as 7/8; in the series with neurotoxicity (rotarod) (setting [4]), 3/4; in the series with neurotoxicity (rotarod) (mice, dose 300 mg/kg b.w., time 4 h), 1/2.
On to `Cc1cc(Cl)ccc1OCC(=O)NCC(O)c1ccccc1` (stereo not drawn) [Compound 82, R,S-2N-[(4-chlor-2-methylphenoxy)acetyl]amino-1-phenylethanol], for which the “TOX, No. of animals exhibiting motor impairment/no. of used animals” value is recorded as 2/8 in the series with neurotoxicity (rotarod) (setting [6]); 4/4 in the series on neurotoxicity (rotarod) (setting [5]); 1/2 in the series with neurotoxicity (rotarod) (mice, dose 300 mg/kg b.w., 4 h).
Consider `Cc1cc(C)c(OCC(=O)NCC(O)c2ccccc2)c(C)c1` (stereo not drawn) [Compound 83, R,S-2N-[(2,4,6-trimethylphenoxy)acetyl]amino-1-phenylethanol], for which the “TOX, No. of animals exhibiting motor impairment/no. of used animals” value in the series on neurotoxicity (rotarod) (setting [5]) is 4/4.
Turning to `Cc1cccc(Cl)c1OCCCNC(C)CO` (racemic) [Compound 57, R,S-2N-[(2-chlor-6-methylphenoxy)propyl]amino-1-propanol], the “TOX, No. of animals exhibiting motor impairment/no. of used animals” value in the series with neurotoxicity (rotarod) (mice, dose 30 mg/kg b.w., 0.5 h) is reported as 4/4; with neurotoxicity (rotarod) (mice, dose 30 mg/kg b.w., 4 h) it was 1/2; in the series on neurotoxicity (rotarod) (setting [6]), 8/8; with neurotoxicity (rotarod) (setting [5]), 4/4.
With `Cc1cc(Cl)ccc1OCCNCC(O)c1ccccc1` (stereo not drawn) [Compound 37, R,S-2N-[(4-chlor-2-methylphenoxy)ethyl]amino-1-phenylethanol], in the series with neurotoxicity (rotarod) (setting [4]), the “TOX, No. of animals exhibiting motor impairment/no. of used animals” value is listed as 1/4.
